The values below come from ChEMBL document CHEMBL1125108 (J Med Chem, 1990).

Format in all cases: tissue-based
One assay concerns the target D(1A) dopamine receptor (Rattus norvegicus, UniProt P18901). Kind of assay: Binding affinity against Dopamine receptor D1 using […] in rat brain.
In assay [1] the target is Muscarinic acetylcholine receptor. Kind of assay: Binding affinity was determined against Muscarinic acetylcholine receptor using [3H]QNB as radioligand in rat brain.
A further assay has as its target D(2) dopamine receptor (Rattus norvegicus, UniProt P61169). Kind of assay: Binding affinity for Dopamine receptor D2 using [3H]spiperone in rat brain.

D(2) dopamine receptor, sequence (P61169 whole entry): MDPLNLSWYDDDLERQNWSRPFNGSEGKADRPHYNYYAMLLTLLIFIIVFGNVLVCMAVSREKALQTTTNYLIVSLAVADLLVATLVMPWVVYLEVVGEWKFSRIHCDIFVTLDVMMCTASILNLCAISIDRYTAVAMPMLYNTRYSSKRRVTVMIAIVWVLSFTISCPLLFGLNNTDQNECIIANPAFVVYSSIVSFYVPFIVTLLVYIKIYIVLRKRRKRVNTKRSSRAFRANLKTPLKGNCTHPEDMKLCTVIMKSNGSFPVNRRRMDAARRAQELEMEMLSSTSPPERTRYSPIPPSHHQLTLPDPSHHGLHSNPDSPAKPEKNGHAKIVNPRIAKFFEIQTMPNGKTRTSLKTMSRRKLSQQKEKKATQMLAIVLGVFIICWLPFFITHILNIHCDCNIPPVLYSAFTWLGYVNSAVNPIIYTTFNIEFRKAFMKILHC
D(1A) dopamine receptor, sequence (P18901 whole entry): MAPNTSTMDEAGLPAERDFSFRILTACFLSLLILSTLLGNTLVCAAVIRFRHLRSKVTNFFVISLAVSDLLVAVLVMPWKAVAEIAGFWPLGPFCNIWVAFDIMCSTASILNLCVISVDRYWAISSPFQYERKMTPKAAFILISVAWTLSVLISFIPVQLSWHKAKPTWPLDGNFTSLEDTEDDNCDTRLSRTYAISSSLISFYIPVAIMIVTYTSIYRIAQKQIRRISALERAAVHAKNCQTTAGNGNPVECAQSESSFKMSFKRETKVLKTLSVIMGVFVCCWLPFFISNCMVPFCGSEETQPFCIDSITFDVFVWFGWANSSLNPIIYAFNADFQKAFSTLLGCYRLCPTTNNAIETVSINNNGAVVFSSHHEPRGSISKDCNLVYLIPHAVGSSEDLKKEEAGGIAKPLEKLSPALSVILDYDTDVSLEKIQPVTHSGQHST

`CC(C)=C1c2ccccc2C=C(N2CCN(C)CC2)c2ccccc21`: the values for the IC50 (on D(1A) dopamine receptor; in assay [1]; at D(2) dopamine receptor) were 540 nM, 415 nM and 4750 nM, respectively.

For `C=C1c2ccccc2C=C(N2CCN(C)CC2)c2ccccc21`, the figures for the IC50 (at D(1A) dopamine receptor; in assay [1]; at D(2) dopamine receptor) were 21 nM, 150 nM and 305 nM, respectively.

`CN1CCN(C2=Nc3ccccc3Nc3ccccc32)CC1` had an IC50 on D(2) dopamine receptor above 10000 nM.

For the molecule `CC(C)=C1c2ccc(Cl)cc2C=C(N2CCN(C)CC2)c2ccccc21`, the IC50 was determined as 443 nM at D(1A) dopamine receptor, 1750 nM in assay [1] and 5000 nM on D(2) dopamine receptor.

With `CC(C)=C1c2ccccc2C=C(N2CCN(C)CC2)c2cc(Cl)ccc21`, the IC50 on D(1A) dopamine receptor was 133 nM; in assay [1] it was 297 nM; at D(2) dopamine receptor it was above 10000 nM.

On to `C=C1c2ccccc2C=C(N2CCN(C)CC2)c2cc(Cl)ccc21`, for which the IC50 on D(1A) dopamine receptor came out at 8 nM; in assay [1], 330 nM; on D(2) dopamine receptor it was 27 nM.

As to `C=C1c2ccc(Cl)cc2C=C(N2CCN(C)CC2)c2ccccc21`, the figures for the IC50 (on D(1A) dopamine receptor; in assay [1]; on D(2) dopamine receptor) were 51 nM, 248 nM and 300 nM, respectively.
